Results from US9102614B2, “Naphth-2-ylacetic acid derivatives to treat AIDS” (Gilead Sciences, Inc., priority 2010, dated 2015).

What follows are compounds tested on HIV-IIIb (assay: Test A: Antiviral Assays in MT4 Cells). Details: Human immunodeficiency virus 1, IIIB, MT4, 120 h.
Assay type: cell-based
Description: Test A: Antiviral Assays in MT4 Cells
For the antiviral assay utilizing MT-4 cells, 0.4 μL of […] test concentration of 3-fold serially diluted compound in DMSO was added to 40 μL of cell growth medium (RPMI 1640, 10% FBS, 1% penicillin/Streptomycin, 1% L-Glutamine, 1% HEPES) in each well of 384-well assay plates (10 concentrations) in quadruplicate.
1 mL aliquots of 2×10e6 MT-4 cells are pre-infected for 1 and 3 hrs respectively, @37° C. with 25 μL (MT4) or of either cell growth medium (mock-infected) or a fresh 1:250 dilution of an HIV-IIIb concentrated ABI stock (0.004 m.o.i. for MT4 cells). Infected and uninfected cells are diluted in cell growth medium and 35 uL of 2000 (for MT4) cells is added to each well of the assay plates.
Assay plates were then incubated in a 37° C. incubator. After 5 days of incubation, 25 μl of 2× concentrated CellTiter-Glo™ Reagent (catalog #G7573, Promega Biosciences, Inc., Madison, Wis.) was added to each well of the assay plate. Cell lysis was carried out by incubating at room temperature for 2-3 min and then chemiluminescence was read using the Envision reader (PerkinElmer).

Going from `Cc1cc2c(F)cc(F)cc2c(-c2ccc3c4c(ccnc24)CCO3)c1[C@H](OC(C)(C)C)C(=O)O` [Compound 110, (S)-2-tert-Butoxy-2-((R)-1-(2,3-dihydropyrano[4,3,2-de]quinolin-7-yl)-5,7-difluoro-3-methylnaphthalen-2-yl)acetic acid] to `Cc1cc2ccccc2c(-c2cccc(N3CCC3)c2)c1[C@H](OC(C)(C)C)C(=O)O` [Compound 19, (S)-2-(1-(3-(Azetidin-1-yl)phenyl)-3-methylnaphthalen-2-yl)-2-tert-butoxyacetic acid], the EC50 rises from 67 nM to 5400 nM (81-fold).

Same assay, conditions: Human immunodeficiency virus 1, IIIB, MT4, 120 h, MT-4 cells infected with HIV-IIIb (0.004 m.o.i.), 5 days of incubation, CellTiter-Glo chemiluminescence readout; read-out: EC50

Compared with `CC(C)(C)O[C@H](C(=O)O)c1c(CO)cc2ccccc2c1-c1ccc(Cl)cc1` [Compound 30, (S)-2-tert-Butoxy-2-(1-(4-chlorophenyl)-3-(hydroxymethyl)naphthalen-2-yl)acetic acid], `Cc1c(C(OC(C)(C)C)C(=O)O)c(-c2ccc(Cl)cc2)c2ccccc2c1C#N` (stereo not drawn) [Compound 147, 2-tert-Butoxy-2-(1-(4-chlorophenyl)-4-cyano-3-methylnaphthalen-2-yl)acetic acid] is 25-fold higher in EC50: 44 nM for the first, 1100 nM for the second. The first is the more potent here.

First: Cc1cc2cc(C3CC3)c(F)cc2c(-c2ccc3c4c(ccnc24)CCO3)c1[C@H](OC(C)(C)C)C(=O)O (atropisomer, axis not shown) [Compound 170]
Second: Cc1cc2ccc(F)cc2c(-c2ccc3c4c(ccnc24)CCO3)c1[C@H](OC(C)(C)C)C(=O)O (atropisomer, axis not shown) [Compound 179]
The EC50 of the first is 1.6-fold higher: 29000 nM for the first, 18700 nM for the second. The second is the more potent here.

Going from `Cc1cc2cc(-c3ccccn3)ccc2c(-c2ccc(Cl)cc2)c1[C@H](OC(C)(C)C)C(=O)O` [Compound 63, (S)-2-tert-Butoxy-2-(1-(4-chlorophenyl)-3-methyl-6-(pyridin-2-yl)naphthalen-2-yl)acetic acid] to `Cc1cc2cc(-c3cccnc3)ccc2c(-c2ccc(Cl)cc2)c1[C@H](OC(C)(C)C)C(=O)O` [Compound 54, (S)-2-tert-Butoxy-2-(1-(4-chlorophenyl)-3-methyl-6-(pyridin-3-yl)naphthalen-2-yl)acetic acid], the EC50 falls from 99 nM to 55 nM (1.8-fold).

Compared with `Cc1cc2c(Cl)c(C)ccc2c(-c2ccc3c4c(ccnc24)CCO3)c1[C@H](OC(C)(C)C)C(=O)O` (atropisomer, axis not shown) [Compound 151], `Cc1cc2c(C#N)c(C)ccc2c(-c2ccc3c4c(ccnc24)CCO3)c1[C@H](OC(C)(C)C)C(=O)O` (atropisomer, axis not shown) [Compound 118, (S)-2-tert-Butoxy-2-((R)-5-cyano-1-(2,3-dihydropyrano[4,3,2-de]quinolin-7-yl)-3,6-dimethylnaphthalen-2-yl)acetic acid] is 24-fold lower in EC50: 850 nM for the first, 36 nM for the second. The second is the more potent here.

First: Cc1cc2ccccc2c(-c2cccc3cccnc23)c1[C@H](OC(C)(C)C)C(=O)O [Compound 4L, (S)-2-tert-butoxy-2-((S)-3-methyl-1-(quinolin-8-yl)naphthalen-2-yl)acetic acid]
Second: Cc1cc2ccccc2c(-c2cnc3ccccc3c2)c1[C@H](OC(C)(C)C)C(=O)O [Compound 16, (S)-2-tert-Butoxy-2-(3-methyl-1-(quinolin-3-yl)naphthalen-2-yl)acetic acid]
The EC50 of the first is 3.1-fold higher: 22000 nM for the first, 7000 nM for the second. The second is the more potent here.

First: Cc1cc2ccc(C#CC(C)(C)O)cc2c(-c2ccc(Cl)cc2)c1[C@H](OC(C)(C)C)C(=O)O [Compound 99, (S)-2-tert-Butoxy-2-(1-(4-chlorophenyl)-7-(3-hydroxy-3-methylbut-1-ynyl)-3-methylnaphthalen-2-yl)acetic acid]
Second: Cc1cc2ccc(C#CC(C)(C)C)cc2c(-c2ccc(Cl)cc2)c1C(OC(C)(C)C)C(=O)O (stereo not drawn) [Compound 72, 2-tert-Butoxy-2-(1-(4-chlorophenyl)-7-(3,3-dimethylbut-1-ynyl)-3-methylnaphthalen-2-yl)acetic acid]
The EC50 of the first is 19-fold lower: 107 nM for the first, 2000 nM for the second. The first is the more potent here.

First: Cc1cc2ccc(-c3ccc(Cl)cc3)cc2c(-c2ccc(Cl)cc2)c1C(OC(C)(C)C)C(=O)O (stereo not drawn) [Compound 70, 2-(1,7-Bis(4-chlorophenyl)-3-methylnaphthalen-2-yl)-2-tert-butoxyacetic acid]
Second: Cc1cc2ccc(Br)cc2c(-c2ccc(Cl)cc2)c1C(OC(C)(C)C)C(=O)O (stereo not drawn) [Compound 71, 2-(7-Bromo-1-(4-chlorophenyl)-3-methylnaphthalen-2-yl)-2-tert-butoxyacetic acid]
The EC50 of the first is 4-fold lower: 8800 nM for the first, 35000 nM for the second. The first is the more potent here.

`Cc1cc2ccccc2c(-c2ccc(Cl)cc2Cl)c1C(OC(C)(C)C)C(=O)O` (stereo not drawn) [Compound 33, tert-Butoxy-[1-(2,4-dichloro-phenyl)-3-methyl-naphthalen-2-yl]-acetic acid] and `Cc1cc2cc(-c3cn[nH]c3)ccc2c(-c2ccc(Cl)cc2)c1[C@H](OC(C)(C)C)C(=O)O` [Compound 57, (S)-2-tert-Butoxy-2-(1-(4-chlorophenyl)-3-methyl-6-(1H-pyrazol-4-yl)naphthalen-2-yl)acetic acid] are within 1.5-fold of each other in EC50: 120 nM for the first, 82 nM for the second.

First: Cc1cc2cc(-c3ncccn3)ccc2c(-c2ccc(Cl)cc2)c1[C@H](OC(C)(C)C)C(=O)O [Compound 59, (S)-2-tert-butoxy-2-(1-(4-chlorophenyl)-3-methyl-6-(pyrimidin-2-yl)naphthalen-2-yl)acetic acid]
Second: Cc1cc2cc(-c3cncnc3)ccc2c(-c2ccc(Cl)cc2)c1[C@H](OC(C)(C)C)C(=O)O [Compound 55, (S)-2-tert-Butoxy-2-(1-(4-chlorophenyl)-3-methyl-6-(pyrimidin-5-yl)naphthalen-2-yl)acetic acid]
The EC50 of the first is 3-fold higher: 160 nM for the first, 54 nM for the second.

Same assay, conditions: MT-4 cells infected with HIV-IIIb (0.004 m.o.i.), 5 days of incubation, CellTiter-Glo chemiluminescence readout; read-out: EC50

Compared with `Cc1cc2ccccc2c(-c2cc(F)cc3cccnc23)c1[C@H](OC(C)(C)C)C(=O)O` [Compound 159], `Cc1cc2ccccc2c(-c2ccc(C(F)(F)F)c3cccnc23)c1[C@H](OC(C)(C)C)C(=O)O` [Compound 7E, (S)-2-tert-butoxy-2-((S)-3-methyl-1-(5-(trifluoromethyl)quinolin-8-yl)naphthalen-2-yl)acetic acid] is 15-fold higher in EC50: 1300 nM for the first, 20000 nM for the second. The first is the more potent here.

First: Cc1cc2c(F)c(CO)ccc2c(-c2ccc3c4c(ccnc24)CCO3)c1[C@H](OC(C)(C)C)C(=O)O [Compound 186B, (S)-2-tert-butoxy-2-((R)-1-(2,3-dihydropyrano[4,3,2-de]quinolin-7-yl)-5-fluoro-6-(hydroxymethyl)-3-methylnaphthalen-2-yl)acetic acid]
Second: Cc1cc2ccccc2c(-c2ccc3c4c(ccnc24)CCO3)c1[C@H](OC(C)(C)C)C(=O)O [Compound 5K, (S)-2-tert-Butoxy-2-((S)-1-(2,3-dihydropyrano[4,3,2-de]quinolin-7-yl)-3-methylnaphthalen-2-yl)acetic acid]
The EC50 of the first is 190-fold lower: 24 nM for the first, 4600 nM for the second.

Compared with `Cc1cc2ccccc2c(-c2ccc3c4c(cc[n+]([O-])c24)CCO3)c1[C@H](OC(C)(C)C)C(=O)O` [Compound 23, 7-((R)-2-((S)-tert-Butoxy(carboxy)methyl)-3-methylnaphthalen-1-yl)-2,3-dihydropyrano[4,3,2-de]quinoline 6-oxide], `Cc1cc2cc(Cl)c(F)cc2c(-c2ccc3c4c(ccnc24)CCO3)c1[C@H](OC(C)(C)C)C(=O)O` [Compound 101, (S)-2-tert-Butoxy-2-((R)-6-chloro-1-(2,3-dihydropyrano[4,3,2-de]quinolin-7-yl)-7-fluoro-3-methylnaphthalen-2-yl)acetic acid] is 1.7-fold higher in EC50: 24 nM for the first, 41 nM for the second. The first is the more potent here.

In the case of `Cc1cc2cc(C#N)c(F)cc2c(-c2ccc3c4c(ccnc24)CCO3)c1[C@H](OC(C)(C)C)C(=O)O` [Compound 106A, (S)-2-tert-Butoxy-2-((R)-6-cyano-1-(2,3-dihydropyrano[4,3,2-de]quinolin-7-yl)-7-fluoro-3-methylnaphthalen-2-yl)acetic acid], the EC50 is reported as 86 nM.
